Data as given in ChEMBL document CHEMBL1201862, “PubChem BioAssay data set” (2004).
Activity calls are given as the source filed them.

Tests used:
HEK293 = assay: SAR Analysis of small molecule inhibitors of T-cell specific antigen receptor-induced NF-kB activation in a HEK-293T cell line using a luminescence assay - Set 2. [Related pubchem assays (depositor defined):AID435003, AID435012, AID489026]; assay type: functional, cell-based; details: Homo sapiens
Streptokinase A = target: T1, Streptokinase A (Streptococcus pyogenes serotype M1, UniProt P10520); assay: S. pyogenes streptokinase expression inhibitors, potency, dose response, plasminogen activation absorbance, OD405 (AID 1914); assay type: functional, Streptococcus pyogenes M1 GAS;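 also: secreted streptokinase activity via plasminogen activation per viability signal from cell pellet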
T1 sequence (P10520 whole entry): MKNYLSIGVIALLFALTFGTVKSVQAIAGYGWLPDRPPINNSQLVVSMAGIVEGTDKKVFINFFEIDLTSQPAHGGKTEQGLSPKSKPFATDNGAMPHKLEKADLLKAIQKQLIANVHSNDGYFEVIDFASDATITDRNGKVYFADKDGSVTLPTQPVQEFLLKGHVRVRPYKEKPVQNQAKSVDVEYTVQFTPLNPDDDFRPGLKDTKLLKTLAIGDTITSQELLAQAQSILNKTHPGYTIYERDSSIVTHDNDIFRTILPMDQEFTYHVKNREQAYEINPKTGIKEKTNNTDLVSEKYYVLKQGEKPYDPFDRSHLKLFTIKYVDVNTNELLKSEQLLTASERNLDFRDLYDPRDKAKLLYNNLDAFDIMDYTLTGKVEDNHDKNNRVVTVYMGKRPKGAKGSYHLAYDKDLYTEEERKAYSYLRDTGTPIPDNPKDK

Hexokinase-1 = target: T2, Hexokinase-1 (Homo sapiens, UniProt P19367); assay: HK1 enzyme inhibition by HKDC1 hits, SAR follow-up, selectivity assay for HKDC1 inhibitor project, biochemical, set 2, resazurin fluorescence coupled readout (AID 588356); assay type: functional
T2 sequence (P19367 whole entry): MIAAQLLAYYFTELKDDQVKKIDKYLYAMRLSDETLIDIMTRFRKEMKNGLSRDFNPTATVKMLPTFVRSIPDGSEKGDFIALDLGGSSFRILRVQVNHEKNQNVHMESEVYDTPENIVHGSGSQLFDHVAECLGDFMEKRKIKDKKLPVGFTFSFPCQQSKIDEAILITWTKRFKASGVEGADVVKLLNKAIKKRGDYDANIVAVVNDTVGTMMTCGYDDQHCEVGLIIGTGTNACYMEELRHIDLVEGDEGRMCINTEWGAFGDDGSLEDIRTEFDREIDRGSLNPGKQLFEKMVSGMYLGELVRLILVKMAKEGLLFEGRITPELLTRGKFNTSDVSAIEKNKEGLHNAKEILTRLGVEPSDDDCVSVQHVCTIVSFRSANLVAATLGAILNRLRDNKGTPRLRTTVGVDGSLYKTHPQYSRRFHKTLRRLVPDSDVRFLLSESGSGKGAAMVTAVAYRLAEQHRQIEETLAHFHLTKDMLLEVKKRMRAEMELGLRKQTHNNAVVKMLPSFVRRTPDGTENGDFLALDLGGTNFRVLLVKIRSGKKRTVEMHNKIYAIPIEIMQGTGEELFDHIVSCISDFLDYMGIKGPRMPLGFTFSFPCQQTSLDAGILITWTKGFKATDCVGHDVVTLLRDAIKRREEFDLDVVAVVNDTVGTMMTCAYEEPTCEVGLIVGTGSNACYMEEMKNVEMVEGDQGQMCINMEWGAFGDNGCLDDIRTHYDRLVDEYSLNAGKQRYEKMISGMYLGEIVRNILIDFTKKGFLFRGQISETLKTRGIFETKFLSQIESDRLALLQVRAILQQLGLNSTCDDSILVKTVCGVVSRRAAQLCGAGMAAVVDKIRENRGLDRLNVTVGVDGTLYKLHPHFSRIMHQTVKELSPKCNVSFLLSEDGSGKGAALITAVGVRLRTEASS

[1] = target: Cystic fibrosis transmembrane conductance regulator/Golgi-associated PDZ and coiled-coil motif-containing protein (Homo sapiens, UniProt P13569+Q9HD26); assay: CAL PDZ peptide-binding inhibitors, dose response, biochemical, fluorescence polarization, Cerulean-tagged CAL PDZ, cherry-picks (AID 504773)
Chain of Cystic fibrosis transmembrane conductance regulator/Golgi-associated PDZ and coiled-coil motif-containing protein (P13569 whole entry, other chains not shown): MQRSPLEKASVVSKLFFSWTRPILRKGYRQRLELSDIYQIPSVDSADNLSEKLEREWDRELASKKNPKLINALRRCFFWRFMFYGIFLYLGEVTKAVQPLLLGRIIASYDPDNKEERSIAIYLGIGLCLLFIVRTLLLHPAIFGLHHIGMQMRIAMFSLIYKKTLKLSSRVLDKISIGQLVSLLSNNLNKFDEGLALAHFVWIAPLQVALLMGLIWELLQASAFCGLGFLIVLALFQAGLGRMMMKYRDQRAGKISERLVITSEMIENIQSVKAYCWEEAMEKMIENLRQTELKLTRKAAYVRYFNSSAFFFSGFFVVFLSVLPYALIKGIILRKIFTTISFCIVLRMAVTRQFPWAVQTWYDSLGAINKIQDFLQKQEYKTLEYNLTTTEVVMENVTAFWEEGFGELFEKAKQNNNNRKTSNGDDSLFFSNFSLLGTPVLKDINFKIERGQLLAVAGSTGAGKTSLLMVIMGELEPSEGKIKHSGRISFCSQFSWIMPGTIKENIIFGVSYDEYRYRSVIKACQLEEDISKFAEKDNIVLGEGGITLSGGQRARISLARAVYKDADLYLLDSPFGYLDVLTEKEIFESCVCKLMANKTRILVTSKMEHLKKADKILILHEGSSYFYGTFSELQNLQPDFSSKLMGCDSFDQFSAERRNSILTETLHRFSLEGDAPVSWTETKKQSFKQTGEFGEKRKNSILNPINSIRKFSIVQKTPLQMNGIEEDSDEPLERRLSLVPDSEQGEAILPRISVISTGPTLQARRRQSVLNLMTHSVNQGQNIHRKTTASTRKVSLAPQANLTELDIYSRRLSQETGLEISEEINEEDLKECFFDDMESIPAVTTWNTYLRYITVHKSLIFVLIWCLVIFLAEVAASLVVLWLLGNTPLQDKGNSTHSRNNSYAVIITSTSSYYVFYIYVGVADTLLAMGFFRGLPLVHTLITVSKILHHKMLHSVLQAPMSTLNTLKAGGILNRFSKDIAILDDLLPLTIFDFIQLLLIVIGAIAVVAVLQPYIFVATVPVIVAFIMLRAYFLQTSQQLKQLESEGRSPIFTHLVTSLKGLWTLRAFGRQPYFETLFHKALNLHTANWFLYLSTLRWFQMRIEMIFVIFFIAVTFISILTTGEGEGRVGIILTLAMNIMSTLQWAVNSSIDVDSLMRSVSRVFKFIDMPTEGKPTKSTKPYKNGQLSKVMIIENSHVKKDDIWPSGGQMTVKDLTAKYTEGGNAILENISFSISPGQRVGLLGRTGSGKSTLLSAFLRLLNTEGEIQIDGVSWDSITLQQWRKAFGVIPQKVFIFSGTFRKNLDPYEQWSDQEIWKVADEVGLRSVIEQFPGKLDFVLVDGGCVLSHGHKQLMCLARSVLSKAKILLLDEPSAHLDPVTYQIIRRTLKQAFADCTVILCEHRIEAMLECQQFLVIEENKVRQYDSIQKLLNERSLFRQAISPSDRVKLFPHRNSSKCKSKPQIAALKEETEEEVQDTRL

[2] = target: T3, Apoptotic protease-activating factor 1 (Homo sapiens, UniProt O14727); assay type: functional
T3 sequence (O14727 whole entry): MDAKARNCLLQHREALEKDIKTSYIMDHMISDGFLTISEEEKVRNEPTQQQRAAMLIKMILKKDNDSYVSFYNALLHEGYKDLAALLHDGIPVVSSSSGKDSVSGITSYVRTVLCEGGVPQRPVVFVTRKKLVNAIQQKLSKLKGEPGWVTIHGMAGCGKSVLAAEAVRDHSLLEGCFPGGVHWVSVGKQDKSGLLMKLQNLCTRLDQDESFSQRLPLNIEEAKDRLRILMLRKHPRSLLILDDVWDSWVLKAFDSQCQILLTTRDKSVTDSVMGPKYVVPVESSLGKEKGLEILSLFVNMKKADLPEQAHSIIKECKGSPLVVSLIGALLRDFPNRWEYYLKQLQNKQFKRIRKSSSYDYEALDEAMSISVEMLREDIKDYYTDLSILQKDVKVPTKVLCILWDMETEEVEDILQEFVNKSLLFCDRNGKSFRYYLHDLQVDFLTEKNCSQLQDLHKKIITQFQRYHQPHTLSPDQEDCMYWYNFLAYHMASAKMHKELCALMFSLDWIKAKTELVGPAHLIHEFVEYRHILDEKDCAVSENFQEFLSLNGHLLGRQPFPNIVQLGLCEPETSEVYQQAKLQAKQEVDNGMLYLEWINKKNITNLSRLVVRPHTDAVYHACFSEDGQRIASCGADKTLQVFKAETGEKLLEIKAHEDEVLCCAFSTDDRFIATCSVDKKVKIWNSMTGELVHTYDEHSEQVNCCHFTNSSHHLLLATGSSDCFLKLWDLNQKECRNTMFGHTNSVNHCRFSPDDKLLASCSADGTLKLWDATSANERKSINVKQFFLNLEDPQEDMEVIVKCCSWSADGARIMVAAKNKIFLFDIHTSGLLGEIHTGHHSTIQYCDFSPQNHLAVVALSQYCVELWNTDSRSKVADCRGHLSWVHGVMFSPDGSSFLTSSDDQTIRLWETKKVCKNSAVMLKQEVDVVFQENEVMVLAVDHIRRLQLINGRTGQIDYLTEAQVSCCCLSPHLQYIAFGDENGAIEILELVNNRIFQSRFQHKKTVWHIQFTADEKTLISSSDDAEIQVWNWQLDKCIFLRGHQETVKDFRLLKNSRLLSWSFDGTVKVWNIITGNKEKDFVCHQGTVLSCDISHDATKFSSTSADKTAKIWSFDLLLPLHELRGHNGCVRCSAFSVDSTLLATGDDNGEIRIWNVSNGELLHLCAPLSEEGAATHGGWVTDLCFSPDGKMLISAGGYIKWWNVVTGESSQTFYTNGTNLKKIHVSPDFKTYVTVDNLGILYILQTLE

Question: With `CCCCC(=O)NC(c1ccc(Cl)cc1)c1ccc2cccnc2c1O` (stereo not given) as the compound, how does the IC50 (HEK293) read?
Answer: 4.57 µM (active)

Question: Which EC50 (Streptokinase A) does the source give for `O=C(N/N=C/c1ccccc1O)/C(O)=C\C1=NC2(CCCC2)Cc2ccccc21` here?
Answer: > 150 µM (not active)

Question: With `CCc1ccc2c(c1)C(NC(C)=O)C(=O)N2CCN1CCOCC1` (stereo not given) as the compound, how does the IC50 (Hexokinase-1) read?
Answer: > 80 µM (inactive)

Question: Which AC50 [1] does the source give for `COc1ccc2noc3c2c1C(=O)c1ccccc1-3` here?
Answer: > 500 µM (inactive)

Question: What about the IC50 [2] of the same compound?
Answer: 42.5 µM (active)
